Legend:
[1] = biological target: T1, T. aurantiacus GH61A polypeptide (Thermoascus aurantiacus, UniProt G3XAP7, N13Y); assay: Microcrystalline cellulose conversion assay III (Examples 12, 13), T. reesei Cel7B endoglucanase I + A. oryzae CEL3A beta-glucosidase, with and without EDTA; assay type: biochemical; details: 72 hours, 50° C.
Protocol: A 5% microcrystalline cellulose slurry was prepared by addition of 2.5 g of AVICEL® PH101 to a graduated 50 ml screw-cap conical tube followed by approximately 40 ml of deionized water. Each conical tube was then mixed thoroughly by shaking/vortexing, and adjusted to 50 ml total with deionized water and mixed again. Contents of the tube were then quickly transferred to a 100 ml beaker and stirred rapidly with a magnetic stirrer. Five hundred μl aliquots of the 5% AVICEL® slurry were pipetted into wells of a 2.0 ml 96-deepwell plate (Axygen, Union City, Calif., USA) using a 1000 μl micropipette with a wide aperture tip (end of tip cut off about 2 mm from the base). Two hundred μl of deionized water and 100 μl of 10 mM MnSO4-500 mM sodium acetate pH 5 were then added to each well. One hundred μl of either deionized water, a 1% gallic acid solution dissolved in water, or a 1% gallic acid solution containing 50 mM EDTA was added to each well. Enzyme mixtures were prepared and then added simultaneously to all wells in a volume of 100 μl, for a total of 1 ml in each reaction. […] All experiments reported were performed in triplicate.
(§1) Primary analysis of the hydrolysis reactions was performed using an AGILENT® 1100 HPLC with CHEMSTATION® software equipped with an AMINEX™ HPX-87H column. After approximately 4 days, the deep-well plate was removed from the incubator and chilled overnight to 4° C. The plate was then mixed well by inversion and briefly centrifuged 52×g in a SORVALL® RT7 centrifuge for 10 seconds. Samples were then mixed by pipetting, and 200 μl from each well were transferred to a MULTISCREEN® HV centrifuge filter plate assembly. The centrifuge filter plate assembly was centrifuged at 2000 rpm in a SORVALL® RT7 centrifuge for 20 minutes. […] Sugars were detected using a refractive index detector with quantification by integration compared to purified sugar standards.
All HPLC data processing was performed using MICROSOFT EXCEL™ software. […] In this assay only glucose was measured since beta-glucosidase was at high levels in all samples but the controls. The degree of cellulose conversion was calculated using Equation 1. Triplicate data points were averaged and standard deviation was calculated.
The microcrystalline cellulose hydrolysis assay was performed as described in Example 12.
Data were collected and analyzed, as described in Example 12, after 72 hours of incubation at 50° C.

[2] = biological target: T1, T. aurantiacus GH61A polypeptide; assay: Bacterial cellulose conversion assay (Examples 15, 16); assay type: biochemical; details: 72 hours, 50° C.
Protocol: Bacterial cellulose was prepared from NATA DE COCO (Huerto International Trading, Lucena City, Philippines) by extensive rinsing of one 500 ml can of cubes with water followed by homogenation for 15 minutes in 0.25 M sodium hydroxide using a WARING BLENDER® (Waring Products, Torrington, Conn., USA). The resulting slurry was pelleted at 40,000×g in a SORVALL® RT7 centrifuge. The supernatant was discarded. The pellet was then resuspended in 0.25 M sodium hydroxide and stirred overnight at 4° C. This procedure was repeated four times. Following the first washing steps, the cellulose was washed six times under similar conditions, substituting water for 0.25 M sodium hydroxide. Following the water washing, the cellulose was again homogenized for 15 minutes in a WARING BLENDER®, and adjusted to a final volume of 250 ml.
A 0.36% bacterial cellulose slurry was prepared as described in Example 14. This 0.36% slurry was thoroughly resuspended by shaking, and quickly transferred to a 100 ml beaker and stirred rapidly with a magnetic stirrer. Seven hundred μl aliquots of the bacterial cellulose slurry were pipetted into wells of a 2.0 ml 96-deepwell plate (Axygen, Union City, Calif.) using a 1000 μl micropipette with a wide aperture tip (end of tip cut off about 2 mm from the base). One hundred μl of 10 mM MnSO4-500 mM sodium acetate pH 5 was then added to each well. One hundred μl of either deionized water, a 1% gallic acid solution dissolved in water, or a 1% gallic acid solution containing 50 mM EDTA were added to each well. Enzyme mixtures were prepared and then added simultaneously to all wells in a volume of 100 μl, for a total of 1 ml in each reaction. […] All experiments reported were performed in triplicate.
as §1
All HPLC data processing was performed using MICROSOFT EXCEL™ software. […] In this assay only glucose was measured since beta-glucosidase was at high levels in all samples but the controls. Percent conversion was determined using Equation 1. Triplicate data points were averaged and standard deviation was calculated.
The bacterial cellulose hydrolysis assay was performed as described in Example 15.
Data was collected and analyzed, as described in Example 15, after 72 hours of incubation at 50° C.

[3] = gallic acid 0.1% w/w + 5 mM EDTA, no enzymes
[4] = gallic acid 0.1% w/w alone, no enzymes

O=C(O)c1cc(O)c(O)c(O)c1 [gallic acid]
conversion of the microcrystalline cellulose ([1]; gallic acid 0.1% w/w + 5 mM EDTA + T. aurantiacus GH61A polypeptide (5 mg/g), no other enzymes): no significant conversion | conversion of the microcrystalline cellulose [1, 3]: no significant conversion | conversion of the microcrystalline cellulose [1, 4]: no significant conversion | hydrolysis of the bacterial cellulose ([2]; gallic acid 0.1% w/w + 5 mM EDTA + A. oryzae CEL3A beta-glucosidase (50 mg/g), no GH61): no significant hydrolysis | hydrolysis of the bacterial cellulose ([2]; gallic acid 0.1% w/w + 5 mM EDTA + T. aurantiacus GH61A polypeptide (50 mg/g), no beta-glucosidase): no significant hydrolysis | conversion of the bacterial cellulose [2, 3]: no significant conversion | hydrolysis of the bacterial cellulose ([2]; gallic acid 0.1% w/w + A. oryzae CEL3A beta-glucosidase (50 mg/g), no GH61): no significant hydrolysis | conversion of the bacterial cellulose [2, 4]: no significant conversion

B1: T. aurantiacus GH61A polypeptide: GH61A polypeptide having cellulolytic enhancing activity (SEQ ID NO: 14), recombinantly produced in Aspergillus oryzae JaL250 (protein, listed as Thermoascus aurantiacus)
chain: MSFSKIIATAGVLASASLVAGHGFVQNIVIDGKYYGGYLVNQYPYMSNPPEVIAWSTTATDLGFVDGTGYQTPDIICHRGAKPGALTAPVSPGGTVELQWTPWPDSHHGPVINYLAPCNGDCSTVDKTQLEFFKIAESGLINDDNPPGIWASDNLIAANNSWTVTIPTTIAPGNYVLRHEIIALHSAQNQDGAQNYPQCINLQVTGGGSDNPAGTLGTALYHDTDPGILINIYQKLSSYIIPGPPLYTG
conversion of the microcrystalline cellulose ([1]; T. aurantiacus GH61A polypeptide (5 mg/g) + endoglucanase I + beta-glucosidase (5 mg/g each), no gallic acid): 4.0±0.2% | conversion of microcrystalline cellulose ([1]; T. aurantiacus GH61A polypeptide (5 mg/g) alone): no significant conversion | conversion of the bacterial cellulose ([2]; T. aurantiacus GH61A polypeptide (50 mg/g) + A. oryzae CEL3A beta-glucosidase (50 mg/g), no gallic acid): no significant conversion | conversion of the bacterial cellulose ([2]; T. aurantiacus GH61A polypeptide (50 mg/g) alone): 1.5±1.4%

Source: patent US9394555B2, “Compositions comprising a polypeptide having cellulolytic enhancing activity and a dioxy compound and uses thereof” (priority 2010, dated 2016)
